For data set [1], the system named is acid producing bacteria (APB). As to the kind of experiment: Uintah basin produced water: acid producing bacteria level. It is filed as cell-based. As to conditions: for APB: untreated 100-1000. Here is the method: (§1) Produced water from the Uintah basin in eastern Utah was tested for sulfide treatment and clarification with sodium peracetate solution. The untreated water appeared green-grey in color, was pH 8.1 and contained about 30 mg/L H2S (as S^2), 90 mg/L organic or other sulfides (as S^2−), and 90 mg/L sulfate. Total iron was about 5 mg/L therefore iron sulfide was only a minor sulfide component.
(§2) A first water sample was treated by a “partial oxidation” in Table II with sodium peracetate oxidant solution. The water was stirred in a closed container while sodium peracetate oxidant was added in a 1.25:1 molar ratio of oxidant to H2S. Aluminum coagulant (about 35 mg/L as Al) was added with the oxidant. The mixture was stirred for 30 seconds and then about 5 mg/L of anionic polymer was added. Large floe formed rapidly over the next 60 seconds and then stirring was stopped. The flocculated solids settled rapidly leaving a clear, colorless supernatant. The “partial oxidation” treatment removed hydrogen sulfide and reduced acid producing bacteria (APB) and sulfate reducing bacteria (SRB) levels to 1-10 cells/mL for each. The ORP increased from −166 mV to 88 mV vs SHE (oxidant was fully consumed) and there was a 20 ppm increase in sulfate concentration due to oxidation of a small portion of sulfur-containing contaminants to sulfate.
(§3) A second water sample was treated by a “full oxidation” in Table II with sodium peracetate oxidant solution. The water was stirred in a closed container while sodium peracetate oxidant was added in a 3.8:1 molar ratio of oxidant to H2S. Aluminum coagulant (about 35 mg/L as Al) was added with the oxidant. The mixture was stirred for 30 seconds and then about 5 mg/L of anionic polymer was added. Large floe formed rapidly over the next 60 seconds and then stirring was stopped. The flocculated solids settled rapidly leaving a clear, colorless supernatant. […]

Another data set has as its system Total bacteria. As to the kind of experiment: Removal of bacteria from high H2S water, Luminultra ATP test method (Example 17). In kind it is cell-based. As for the experimental part: A high H2S water sample near Odessa, Tex., USA was tested for H2S and bacteria removal.
A 600 mL portion of the water was transferred by siphon pump to a 1 L beaker outfitted with a magnetic stir bar, pH probe, ORP probe and a sealed cover with a small opening for adding chemicals. The solution was mixed at a moderate rate at room temperature using a magnetic stir plate while a 17% hydrogen peroxide solution was added in a 1.9:1 molar ratio of oxidant to sulfide to remove about 80% of the H2S. […] After 10 minutes of reaction time aluminum coagulant and anionic flocculation polymer dispersion were added causing a rapid flocculation and settling of most of the pale yellow solids. The clarified supernatant was decanted to a second beaker outfitted the same as the first.
A 500 mL portion of the supernatant above was mixed while a 2.1% sodium peracetate solution was added in a 1.6:1 molar ratio of oxidant to sulfide to remove the remaining 20% of the H2S and promote a final clarification and bacteria removal. […] After 10 minutes of reaction time aluminum coagulant and anionic flocculation polymer dispersion were added causing a rapid flocculation and settling of the pale solids.

Data set [2] can be described thus: Stability of sodium peracetate oxidant solution (half-life, loss of active oxidant). It is filed as physicochemical. From the text: However, the sodium peracetate oxidant solutions were discovered to be stable enough, when diluted to below 1% concentration, to have a working time practical for producing large volumes of treatment fluids in a tank for down-hole well treatment applications including hydrogen sulfide mitigation, bacteria reduction, iron sulfide scale cleaning and polymer gel breaking.
In some embodiments, to conduct a well treatment a large, diluted volume of sodium peracetate oxidant solution is preferably staged in a carrier fluid having no oxidant demand. The carrier fluid may include fresh water, salt water, treated production water and, optionally, combined with other treatment chemicals such as hydrochloric acid, citric acid, acetic acid, acid-containing micellar solvent, corrosion inhibitor, and iron chelant. Lower concentrations, less than 1%, of sodium peracetate oxidant may be staged for a limited period of time with small losses in active oxidant. For example, a 0.25% solution is expected to lose about 4-6% of its active sodium peracetate per hour at 20° C. A container, tank or tanker truck of sodium peracetate solution must be vented to release oxygen gas byproduct evolved from the oxidant as it naturally degrades in a carrier fluid.
In this example a diluted sodium peracetate oxidant solution is staged in 500 barrel (21,000 gal) quantities produced in a 55 minute period. […]

The conditions of data set [3]: 7% sodium peracetate solution in clean water; cited from earlier work.
The test system of data set [4] is naturally occurring microbes. As to the kind of experiment: Preservation of guar mixture against microbial growth. It is filed as cell-based. As to conditions: about 65 mg/L oxidant, at least a week at room temperature. Here is the method:
The use of the sodium peracetate oxidant formulation was tested for the depolymerization and break down of guar gum.
The guar mixture was made by rapidly mixing 10 g/L food grade guar gum powder into a 10 g/L sodium chloride solution in distilled water. The blended mixture was heated to about 35-40° C. in a heated water bath for at least one hour to fully hydrate the guar. The mixture appeared translucent with fine, milky white suspended solids. […] Several 60 mL portions of the guar mixture were prepared for different treatments as summarized in Table I. The first was a control sample to which no oxidant was added. The remaining samples had increasing amounts of sodium peracetate oxidant added to them. […] The oxidant was rapidly mixed with the guar mixture resulting in a pale yellow color. The mixtures were placed in a water bath at about 35-40° C. and the yellow color gradually faded away over the next hour. After two hours the samples were cooled to room temperature.
The control sample remained viscous for a day, but lost viscosity after sitting at room temperature overnight and microbial growth as a biofilm was visible after a week. […] The fine, suspended solids settled out leaving a clear, colorless solution. A second treatment of the last sample reduced the viscosity further by a small amount.

Data set [5] has as its system sulfate reducing bacteria (SRB). The experiment in a line: Uintah basin produced water: sulfate reducing bacteria level. The note with it: for SRB: untreated 10-100. In kind it is cell-based. As for the experimental part: as §1, §2, §3
The conditions of data set [6]: for time until ORP rose above 100 mV indicating H2S fully oxidized: 80 mg/L H2S water. As for the experimental part:
Hydrogen peroxide is an inexpensive oxidant for H2S removal, but is slow acting relative to several other oxidants. Shortening the reaction time or contact time required in a water treatment process reduces the volume of contact basins or increases the throughput of a treatment process such as that described in Example 17.
A portion of the 80 mg/L H2S water was treated by mixing into it a 17% wt/wt solution of hydrogen peroxide such that the molar ratio of hydrogen peroxide to sulfide was about 5.7:1. Hydrogen peroxide was added in excess such that it was not a limiting reagent in the oxidation reaction. The ORP and pH of the water was monitored to track the oxidation rate of H2S. FIG. 3 depicts the progression of ORP and pH over time during oxidation.
A second portion of the 80 mg/L H2S water was treated by mixing into it a 17% wt/wt solution of hydrogen peroxide such that the molar ratio of hydrogen peroxide to sulfide was about 5.7:1. A small portion of muriatic acid (about 34% hydrochloric acid solution) was added with the hydrogen peroxide to slightly lower the pH to between 6.5 and 7.0 thereby converting at least a portion of the NaHS to H2S and accelerate the reaction rate. FIG. 4 depicts the progression of ORP and pH over time during oxidation.

The mark [7] stands for this setting: Treated Water Full Oxidation (3.8:1).
Where [8] appears, read: Treated Water Partial Oxidation (1.25:1).
Where [9] appears, read: full oxidation (3.8:1), after 4 months at room temperature.

Entries after “also recorded” stand apart in the source; their conditions may differ. Where two headings read alike, the source gives them in different places.

For the compound “sodium peracetate [sodium peracetate oxidant solution]”, the figures for the APB in data set [1] (setting [7]) and in data set [1] (setting [8]) were less than 1 cells/mL and 1-10 cells/mL, respectively. In data set [1] (setting [9]), the “grow back of APB” value is “no detectable grow back”. The “ATP and corresponding bacteria population reduced by, relative to the untreated water” value in the data set on Total bacteria (after second step: sodium peracetate 1.6:1 following hydrogen peroxide step) is 99%. For the same compound, the “ATP concentration in supernatant” value in the data set on Total bacteria (second step: sodium peracetate 1.6:1 after hydrogen peroxide step) was 3 pg/mL. For the same compound, the “loss of active oxidant concentration” value in data set [2] (0.2% diluted solution, in 55 minutes at 25° C.) is given as approximately 4%. The “loss of active sodium peracetate per hour” value in data set [2] (0.25% solution, 20° C.) is on record as 4-6%. Besides, the half-life entry in data set [3] is given as “about 80 minutes”. Moreover, the “microbial growth in guar mixture (preservative effect)” value in data set [4] is on record as “did act as a preservative; also recorded: no microbial growth was observed”. Besides, the SRB in data set [5] (setting [7]) was less than 1 cells/mL; in data set [5] (setting [8]), 1-10 cells/mL. The “grow back of SRB” value in data set [5] (setting [9]) is “no detectable grow back”.
As for `OO` [hydrogen peroxide], the “time until ORP rose above 100 mV indicating H2S fully oxidized” value in data set [6] (17% wt/wt hydrogen peroxide, 5.7:1 molar to sulfide, no acid) is “about 22 minutes”; in data set [6] (hydrogen peroxide 5.7:1 with muriatic acid, pH between 6.5 and 7.0), “about 9 minutes”. Besides, the “rate of H2S oxidation when acid was added with the oxidant” value in data set [6] (hydrogen peroxide 5.7:1 with muriatic acid versus without) is reported as “approximately doubled”. Moreover, the “ATP and corresponding bacteria population reduced by” value in the data set on Total bacteria (first step: hydrogen peroxide 1.9:1, then coagulant and polymer) is recorded as “about 95%”. Further, the “ATP concentration in supernatant” value in the data set on Total bacteria (first step: hydrogen peroxide 1.9:1, then coagulant and polymer, untreated 280 pg/mL) came out at 14 pg/mL.

These data come from patent US10941063B2 (priority 2015, dated 2021).
